The source of these data is patent US8748375B2 (Amylin Pharmaceuticals, LLC, priority 2009, dated 2014).

Data set [1] relates to High fat-fed male SPRAGUE-DAWLEY rats (DIO). Kind of data set: Example 1: chronic infusion, food consumption, body weight, body composition. The conditions noted are these: obesity-prone rats, vs vehicle control. The format is in vivo, rat. Here is the method: (§1) Low fat-fed rats (11% kcal from fat, D12329, Research Diets) were also implanted with pumps delivering vehicle. Food intake and body weight measurements were obtained weekly.
Rats were sacrificed by cardiac puncture under anesthesia. Triglyceride levels were measured on a COBAS Mira plasma analyzer (Roche), and leptin and insulin were assayed according to Linco Research rat RIA kits. Body composition was measured by chemical analysis (Covance Laboratories, Madison, Wis.).
All data are represented as mean±SEM. Analysis of variance was used to test for group differences.
The rats were fattened for 10 weeks prior to drug treatment. The high fat-fed rats were designated as obesity-prone (top 50% of weight gainers) or obesity-resistant (bottom 50%) based on the amount of weight gained through week 7.

For data set [2], the system named is high fat-fed rats. Put plainly: Example 2: three doses of amylin, food intake and body weight. The data set is classed as in vivo, rat.
Excerpt: as §1

The test system of data set [3] is Lean, male Harlan SPRAGUE DAWLEY (HSD) rats. Put plainly: Example 3: chronic amylin infusion, lean rats. The format is in vivo, rat. Details: Fat: dose or concentration left out as unconfirmed. The protocol:
(§2) Lean, male Harlan SPRAGUE DAWLEY® (HSD) (Harlan 7012) rats were maintained on “standard chow” (˜5% calories from fat).
(§3) Food intake and body weight were recorded daily (FIGS. 5, 6A, 6B, 7, 8A, and 8B).
(§4) On the final day of the experiment, rats were deeply anaesthetized and sacrificed by cardiac puncture. Plasma triglycerides, glucose, and cholesterol were measured on a COBAS Mira plasma Analyzer (Roche). Plasma leptin and insulin were measured using Linco Research kits. (See, FIGS. 9A-9F and 10A-10E.) Body composition was measured by chemical analysis (Covance Laboratories, Madison, Wis.). Fat pad weights of the epididymal, retroperitoneal, subcutaneous, and perirenal fat pads (all unilateral; analysis only done in DIO animals) were carefully dissected and weighed (FIGS. 12A-12D). In analyzing the tissue biochemistry, […] were powdered under liquid N2 and extracted in chloroform:methanol. 0.6% NaCl solution was then added and the tubes were vortexed, centrifuged, and the organic phase was transferred to glass scintillation vials and dried under a stream of N2. Dried lipids were resuspended and triglycerides were quantified by enzymatic assay (Pointe Scientific, Inc.). Tissue glycogen was measured by the amyloglucosidase method. (See FIGS. 11A-11D.)
(§5) All data are represented as mean±SEM. Analysis of variance (ANOVA) and Bonferroni post-hoc tests were used to test for group differences (SYSTAT® for Windows). A P-value<0.05 was considered significant. Graphs were generated using PRISM® 4 for Windows (Graphpad Software).

For data set [4], the system named is DIO (Levin) male rats. Put plainly: Example 3: chronic amylin infusion, DIO rats. The format is in vivo, rat. Set-up: Ash: dose or concentration left out as unconfirmed. The protocol: as §2, §3, §4, §5
Data set [5] relates to Retired female breeder rats on high fat diet. Put plainly: Example 4: amylin with prior or concurrent food restriction. The format is in vivo, rat. The conditions noted are these: for Estimated Mean Weight change from treatment: amylin 100 μg/kg/day. The text has this:
Retired female breeder rats were maintained on a high fat diet (40% fat) for 8 weeks. Prior to drug treatment, rats were either ad-lib fed or food restricted to 95% of their starting body weight.

Data set [6] deals with DIO Levin rats. Kind of data set: Example 5: amylin versus pramlintide. The data set is classed as in vivo, rat. The conditions noted are these: 76 nmol/kg/day, osmotic mini-pump, 24 days. The protocol: 48 DIO Levin rats (an in-bred model of diet induced obesity) were used in this study. […] Food intake and body weight was measured daily. […] The pair-fed groups were only allowed to consume the daily intakes of their respective drug-treated groups. For body composition, rats were scanned in a rodent NMR before treatment and after sacrifice (at the end of the study), allowing for the ability to calculate changes in carcass fat and protein (e.g., lean tissue).

The conditions of data set [7]: in vivo; cited from earlier work.
In data set [8] the test system is insulin-stimulated glycogen synthesis in soleus muscle. Put plainly: Soleus Muscle Assay. The format is cell-based, rat. Here is the method:
Concentrations of peptide dissolved in carrier-free buffers are determined by quantitative amino acid analysis, as described therein. The ability of compounds to act as agonists in this assay is determined by measuring EC50 values. […] Similar results were obtained with other agonist compounds listed above.

Data set [9] in a line: adsorption onto glass in liquid form. The data set is classed as physicochemical. The conditions noted are these: glass container. The text has this:
These formulations may then be lyophilized. Surfactants can cause denaturation of protein, both of hydrophobic disruption and by salt bridge separation. Relatively low concentrations of surfactant may exert a potent denaturing activity, because of the strong interactions between surfactant moieties and the reactive sites on proteins. However, judicious use of this interaction can stabilize proteins against interfacial or surface denaturation. Surfactants which could further stabilize the peptide may optionally be present in the range of about 0.001 to 0.3% (w/v) of the total formulation and include polysorbate 80 (i.e., polyoxyethylene(20) sorbitan monooleate), CHAPS® (i.e., 3-[(3-cholamidopropyl) dimethylammonio] 1-propanesulfonate), Brij® (e.g., Brij 35, which is (polyoxyethylene (23) lauryl ether), poloxamer, or another non-ionic surfactant.

For data set [10] the following is noted: pramlintide 180 mcg TID, 1 day of treatment; cited from earlier work.
Setting [11] is: amylin 300 mg/kg/day, 28-day pump.
The mark [12] stands for this setting: DIO rats, amylin 300 mg/kg/day, 28-day pump.

Marks after values point to notes of the source that are not given here.

For “amylin: Amylin synthesized by Amylin Pharmaceuticals, Inc. by solid-phase chemistry; species not stated in the examples (KCNTATCATQRLANFLVHSSNNFGAILSSTNVGSNTY; Islet amyloid polypeptide; UniProt P10997 34-70, looked up)”, the “protein (body composition)” value in [1] is listed as “increase in protein”. Besides, the body weight gain entry in data set [2] (30 μg/kg/day) was “reduction in body weight gain”; in [6], “significant effect on slowing body weight gain”. The “effects on food intake and body weight” value in [2] (30, 100, 300 μg/kg/day) was “dose-dependent”. Also, the “weight gain compared to vehicle rats” value in data set [3] and in [4] (DIO rats) was “significant reduction in weight gain” throughout. The Moisture in data set [3] (setting [11]) was 67.57 ± 0.7 %; in data set [4] (setting [12]), 56.68 ± 4.4 %. For the same compound, the figures for the Protein in data set [3] (setting [11]) and in [4] (setting [12]) were 20.67 ± 0.74% and 18.09 ± 1.68 %, respectively. The Weight in data set [3] (setting [11]) is recorded as 392.25* g; in data set [4] (setting [12]), 548.94* g. For the same compound, the Fat in data set [3] (amylin, 28-day pump) was determined as 7.2 ± 1.5 %; in data set [4] (setting [12]) it was 24.3 ± 6.5 %. For the same compound, the results for the percent body fat result in [3] (relative to pair-fed) and in data set [4] (DIO rats) were “lower percent body fat relative to pair-fed” and “significant decrease in percent body fat”, respectively. For the same compound, the percent protein entry in [4] (DIO rats) is “significant preservation or gain in percent protein”. Besides, in [4] (DIO rats, 28-day pump), the Ash was 1.65 ± 0.34%. Moreover, the muscle glycogen content entry in data set [4] (rat, in vivo) is recorded as “significantly reduced muscle glycogen content”. Further, the “Estimated Mean Weight change from treatment” value in [5] (Ad-lib prior, Ad-lib during) was -21.8 ± 1.4 g; in [5] (Ad-lib prior, Restricted during) it was -23.1 ± 2.3 g; in data set [5] (Restricted prior, Ad-lib during), -18.2 ± 2.5 g; in data set [5] (Restricted prior, Restricted during), -17.1 ± 2.0 g. In addition, in data set [5] (all treatment conditions), the body weight entry is “significantly reduced body weight under all treatment conditions”. For the same compound, in data set [5] (vs vehicle treated counterparts), the food intake result was “ate less than their vehicle treated counterparts”. The body composition result in [6] was “favorable effects on body composition”. Besides, in [7], the “effect on food intake tapers off after” value was 60 min. Besides, the “onset of effect on food intake” value in data set [7] was at most 30 min.

Turning to `CC[C@H](C)[C@H](NC(=O)[C@@H]1CCCN1C(=O)CNC(=O)[C@H](Cc1ccccc1)NC(=O)[C@H](CC(N)=O)NC(=O)[C@H](CC(N)=O)NC(=O)[C@H](CO)NC(=O)[C@H](CO)NC(=O)[C@H](Cc1c[nH]cn1)NC(=O)[C@@H](NC(=O)[C@H](CC(C)C)NC(=O)[C@H](Cc1ccccc1)NC(=O)[C@H](CC(N)=O)NC(=O)[C@H](C)NC(=O)[C@H](CC(C)C)NC(=O)[C@H](CCCNC(=N)N)NC(=O)[C@H](CCC(N)=O)NC(=O)[C@@H](NC(=O)[C@H](C)NC(=O)[C@@H]1CSSC[C@H](NC(=O)[C@@H](N)CCCCN)C(=O)N[C@@H](CC(N)=O)C(=O)N[C@@H]([C@@H](C)O)C(=O)N[C@@H](C)C(=O)N[C@@H]([C@@H](C)O)C(=O)N1)[C@@H](C)O)C(C)C)C(=O)N[C@@H](CC(C)C)C(=O)N1CCC[C@H]1C(=O)N1CCC[C@H]1C(=O)N[C@H](C(=O)N[C@@H](CC(N)=O)C(=O)N[C@H](C(=O)NCC(=O)N[C@@H](CO)C(=O)N[C@@H](CC(N)=O)C(=O)N[C@H](C(=O)N[C@@H](Cc1ccc(O)cc1)C(N)=O)[C@@H](C)O)C(C)C)[C@@H](C)O` [^25, 28, 29Pro-h-Amylin], in data set [8], the “amylin agonist activity (in words)” value is given as “act as amylin agonists” and the “antagonist activity in soleus muscle assay (in words)” value is reported as “negligible antagonist activity”. In data set [9], the “tendency to adsorb onto glass” value is “does not have a tendency to adsorb onto the glass”. In addition, in [6], the body composition entry is on record as “favorable effects on body composition” and the body weight gain entry was “significant effect on slowing body weight gain”. For the same compound, the “reduction in mean daily caloric intake” value in data set [10] is around 19%.

For the compound “CSNLSTCVLGKLSQELHKLQTYPRTNTGSGTP [salmon calcitonin]”, the “delayed effect, peak levels still maintained at” value in data set [7] is 240 min.
